Some results are limits rather than exact numbers.

This note sets out measurements from paper PMC7756582, “Prodrugs of γ‐Alkyl‐Modified Nucleoside Triphosphates: Improved Inhibition of HIV Reverse Transcriptase” (Angewandte Chemie (International Ed. in English), 2020).

This data set in a line: Enzyme-catalyzed hydrolysis in human CD4+ T-lymphocyte CEM cell extracts. Format: in vitro ADME. To be noted: for half-life at 0.86 mM: CEM/0 cell extracts (CD4+ T-lymphocytes), human CD4+ T-lymphocyte CEM cell extracts, 37 °C, read-out: CEM/0 cell extracts t 1/2 (converted). The method, then: The stability of prodrugs 6 and the γ‐alkyl‐NTPs 7 was further investigated in human CD4 ^+ T‐lymphocyte CEM cell extracts. […] Thus, an enzymatic cleavage reaction took place. Half‐lives as low as 0.4 h (6 az) to 5.2 h (6 dz) were determined. […] This is in accordance to our previous results for the DiPPro‐[ ^17 , ^18 ] or the TriPPPro‐compounds 5.[ ^22 , ^23 ] In all cases we observed the predominant formation of γ‐alkyl‐d4TTPs 7 and d4TDP 2 d in very low concentration (Figure 2 B) but no NTP formation was detected, in contrast to the studies using the previously described TriPPPro compounds 5.[ ^23 , ^24 ] However, the difference to the compounds bearing long lipophilic acyl groups was not very pronounced (2‐ to 3‐fold). In the case of γ‐(AB‐C4,alkyl‐C18)‐d4TTP 6 cz, γ‐C18‐d4TTP 7 z was detected as the main product. After 8 h incubation, the ratio of γ‐C18‐d4TTP 7 z and d4TDP 2 d was 5:1. This was in sharp contrast to the studies performed with TriPPPro compounds 5.[ ^23 , ^24 ] There, it was almost impossible to detect significant concentrations of d4TTP due to its fast dephosphorylation to form first d4TDP and finally d4TMP 2 m. […] The formation of thymine or d4TTP 2 t from γ‐C18‐d4TTP 7 z was not detected (Supporting Information, Figure SI2).
ProLab 300 from Schott Co.. Thermomixer: Eppendorf Thermomixer 5436 and CellMedia Thermoschüttler basic were used. […]
Enzyme-catalyzed hydrolysis of γ-(AB,alkyl)-d4TTPs 6, γ-alkyl-d4TTPs 7,15 and TriPPPros 5 in CEM cell extracts:
18 µL of the appropriate 50 mM DMSO-d6 stock solution was diluted to 6.0 mM hydrolysis solution by addition of 132.0 µL DMSO-d6.
7-10 different samples including 10 µL water and 10 µL hydrolysis solution were prepared in 2 mL Eppendorf® vials. The reaction was started by addition of 50 µL human CEM cell extract and the mixture was incubated at 37 °C for different time periods. The reactions were stopped by addition of 150 μL MeOH. The solution was kept on ice for 5 min followed by centrifugation for 5 min (13000 rpm).
The supernatants were filtered (Chromafil® RC-20/15 MS, 0.2 μm) and stored in liquid nitrogen. When testing, the samples were defrosted and injection volume with 80 μL was used for HPLC analysis. The calculation of t1/2 was performed analogously to that for the chemical hydrolysis studies.
Preparation of cell extracts: Human CD4+ T-lymphocyte CEM cells were grown in RPMI-1640-based cell culture medium to a final density of ~3·10^6 cells/ml. Then, cells were centrifuged for 10 min at 1,250 rpm at 4 °C, washed twice with cold PBS, and the pellet was re-suspended at 10^8 cells/ml and sonicated (Hielscher Ultrasound Techn., 100% amplitude, 3·times for 10 sec) to destroy cell integrity. The resulting cell suspension was then centrifuged at 10,000 rpm to remove cell debris, and the supernatant divided in aliquots before being frozen at -80 C and used.

With `Cc1cn(C2C=CC(COP(=O)(O)OP(=O)(O)OP(=O)(O)O)O2)c(=O)[nH]c1=O` (centres unmarked) [2 t, d4TTP, reference compound], the “stability in cell extracts (in words)” value (CEM cell extracts, incubation up to 30 h) is given as “rapidly enzymatically dephosphorylated”.
In the case of `CCCCCCCCCCCCCCCCCCOP(=O)(OCc1ccc(OC(=O)CCCC)cc1)OP(=O)(O)OP(=O)(O)OCC1C=CC(n2cc(C)c(=O)[nH]c2=O)O1` (centres unmarked) [6 cz, γ‐(AB‐C4,alkyl‐C18)‐d4TTP], the half-life at 0.86 mM was 4.8 h.
On the same count and under the same terms, with `CCCCCCCCCCCCCCCC(=O)Oc1ccc(COP(=O)(OCCCC)OP(=O)(O)OP(=O)(O)OCC2C=CC(n3cc(C)c(=O)[nH]c3=O)O2)cc1` (centres unmarked) [6 ew, γ‐(AB‐C15,alkyl‐C4)‐d4TTP] the figure was 2.2 h; with `CCCCOP(=O)(O)OP(=O)(O)OP(=O)(O)OCC1C=CC(n2cc(C)c(=O)[nH]c2=O)O1` (centres unmarked) [7 w, γ‐C4‐d4TTP], above 30 h.
For the compound `CCCCCCCCCCCCCCCCCCOP(=O)(O)OP(=O)(O)OP(=O)(O)OCC1C=CC(n2cc(C)c(=O)[nH]c2=O)O1` (centres unmarked) [7 z, γ‐C18‐d4TTP], the half-life at 0.86 mM was above 30 h.
